Data on nine molecules can be found in ChEMBL document CHEMBL4316623, “Phosphonodiamidate prodrugs of N-alkoxy analogs of a fosmidomycin surrogate as antimalarial and antitubercular agents” (Bioorg Med Chem Lett, 2019).

Structures are written as SMILES.

Data set [1] is described as follows: Selectivity index, ratio of CC50 for human MRC5 cells to IC50 for Mycobacterium tuberculosis H37Ra ATCC 25177 harboring lux gene. As to conditions: read-out: Ratio CC50/IC50. In kind it is toxicity.
Data set [2] relates to Mycobacterium tuberculosis. The experiment in a line: Antitubercular activity against Mycobacterium tuberculosis H37Ra ATCC 25177 harboring lux gene measured after 7 days by luminometric method. In kind it is functional, organism-based. The conditions noted are these: H37Ra ATCC 25177, 168 h.

`CCOC(=O)[C@H](CC(C)C)NP(=O)(CCCC(=O)N(C)O)N[C@@H](CC(C)C)C(=O)OCC`: in data set [1], the selectivity ratio was greater than 2.2. Also, the IC50 (commonly the concentration at which inhibition is half-maximal) in data set [2] was 29.4 µM. Taken in the same sequence, the figures for `CCOC(=O)[C@H](CC(C)C)NP(=O)(CCCC(=O)N(C)OCCCCc1ccccc1)N[C@@H](CC(C)C)C(=O)OCC` were 0.14 and 50.3 µM. The like results for `CCOC(=O)[C@H](CC(C)C)NP(=O)(CCCC(=O)N(C)OCc1ccc(C(C)C)cc1)N[C@@H](CC(C)C)C(=O)OCC` were, in that order, 0.15 and 49.1 µM. In the case of `CCOC(=O)[C@H](CC(C)C)NP(=O)(CCCC(=O)N(C)OCCCc1ccccc1)N[C@@H](CC(C)C)C(=O)OCC`, the IC50 in data set [2] was greater than 64 µM.

As for `CCOC(=O)[C@H](CC(C)C)NP(=O)(CCCC(=O)N(C)OCc1ccc(Cl)cc1)N[C@@H](CC(C)C)C(=O)OCC`, in data set [1], the selectivity ratio came to 0.37. This molecule returned an IC50 in data set [2] of 49 µM. The like results for `CCOC(=O)[C@H](CC(C)C)NP(=O)(CCCC(=O)N(C)OCc1ccc2ccccc2c1)N[C@@H](CC(C)C)C(=O)OCC` were, in that order, 0.11 and 48.2 µM.

In the case of `CCOC(=O)[C@H](CC(C)C)NP(=O)(CCCC(=O)N(C)OCc1ccc(-c2ccccc2)cc1)N[C@@H](CC(C)C)C(=O)OCC`, the selectivity ratio in data set [1] is 0.17. Besides, the IC50 in data set [2] is 35.2 µM.

Molecule `CCOC(=O)[C@H](CC(C)C)NP(=O)(CCCC(=O)N(C)OCc1ccccc1)N[C@@H](CC(C)C)C(=O)OCC` had an IC50 in data set [2] greater than 64 µM. The same measure, in the same setting: to `NNC(=O)c1ccncc1` [ISONIAZID] belongs 0.21 µM.
